Test results from patent US5912183A, “Peptide inhibitors of mitogenesis and motogenesis” (Pharmacia & Upjohn S.p.A., priority 1993, dated 1999).
Residues, ends and D or L forms follow the SMILES beside them.

Key:
[1] = tested on: binding of PI 3-kinase holoenzyme to HGF/SF receptor; assay: Competition of phosphopeptides with PI 3-kinase holoenzyme (A549 cytosolic extracts) for association with recombinant HGF/SF receptor (PI 3-kinase activity assay); parameters: species or system human; details: summary statement in the description
Experimental: FIG. 3. Inhibition of binding of PI 3-kinase holoenzyme to HGF/SF receptor by tyrosine-phosphorylated peptides. The phosphopeptides which efficiently out-competed p85 (FIG. 1) were assayed for the ability to interfere with binding of the PI 3-kinase holoenzyme to the HGF/SF receptor. Cytosolic extracts from three days-starved A549 cells were pre-incubated with each of the phosphopeptides (10 μM) prior to incubation with the immobilized recombinant HGF/SF receptor. The presence of receptor-associated PI 3-kinase in the immunocomplexes was determined by PI 3-kinase activity assay, as described in Materials and Methods of Example 4. The position of the phosphatidylinositol-3-phosphate (PIP) product of the PI 3-kinase reaction is indicated.
In vitro association experiments. Sf9 cells expressing the recombinant HGF/SF receptor (approximately 4×10^6 cells/point) were lysed 36 hours after infection in buffer A (10 mM Tris-HCl buffer pH 7.5, 10% glycerol, 1% Triton X-100, 150 mM NaCl, 5 mM EDTA), supplemented with 0.2 mM phenyl-methylsulfonyl fluoride, 1 μg/ml leupeptin, 0.1 TIU/ml aprotinin and 1 μg/ml pepstatin. […]
The presence of the p85 subunit of the PI 3-kinase in the receptor immunoprecipitate was determined by: i) labelling of the receptor and associated proteins with [γ-^32 P]ATP by in vitro kinase assay; ii) Western immunoblotting; iii) PI 3-kinase activity assay. […]

[2] = target: T1, binding of p85 to HGF/SF receptor (Bos taurus, UniProt P23727); assay: Competition of phosphopeptides with p85 for association with immobilized recombinant HGF/SF receptor (in vitro kinase assay readout); parameters: species or system human
T1 construct: made in house; host or cells: Sf9 insect cells (baculovirus), for both p85 and the receptor
Procedure, shortened: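 Sf9 lysates expressing p85 were pre-incubated 1 h at 4°C with phosphopeptides (10 μM; also 10 nM, 100 nM, 1 μM), then bound to immunoprecipitated baculovirus-expressed receptor pre-phosphorylated with 10 μM cold ATP. Bound p85 was detected by in vitro kinase labelling with [γ-32P]ATP, 15 min at 25°C, and SDS-PAGE.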

T1 sequence (P23727 whole entry): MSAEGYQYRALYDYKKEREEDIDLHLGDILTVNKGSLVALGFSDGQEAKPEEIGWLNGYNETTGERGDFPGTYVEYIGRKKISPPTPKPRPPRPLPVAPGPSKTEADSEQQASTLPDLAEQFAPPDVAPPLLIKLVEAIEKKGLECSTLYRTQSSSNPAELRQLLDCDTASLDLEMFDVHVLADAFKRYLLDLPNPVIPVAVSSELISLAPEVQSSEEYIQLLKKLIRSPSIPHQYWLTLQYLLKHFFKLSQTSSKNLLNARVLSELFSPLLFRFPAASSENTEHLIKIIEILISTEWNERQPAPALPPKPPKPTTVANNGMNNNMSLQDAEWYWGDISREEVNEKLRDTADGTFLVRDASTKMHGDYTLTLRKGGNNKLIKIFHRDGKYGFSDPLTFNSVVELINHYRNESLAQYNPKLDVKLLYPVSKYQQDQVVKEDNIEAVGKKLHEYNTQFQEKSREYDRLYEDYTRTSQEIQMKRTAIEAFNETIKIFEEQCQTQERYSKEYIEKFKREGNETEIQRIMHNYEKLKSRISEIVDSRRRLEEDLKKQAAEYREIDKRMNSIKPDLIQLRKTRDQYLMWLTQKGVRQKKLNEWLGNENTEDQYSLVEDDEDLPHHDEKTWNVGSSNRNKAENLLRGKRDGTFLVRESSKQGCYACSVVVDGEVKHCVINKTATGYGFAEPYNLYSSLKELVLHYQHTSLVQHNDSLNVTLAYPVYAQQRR

CSCC[C@H](NC(=O)[C@@H](NC(=O)[C@H](CCC(=O)O)NC(=O)[C@@H](N)Cc1ccc(OP(=O)(O)O)cc1)C(C)C)C(=O)N[C@@H](CC(C)C)C(=O)N[C@@H](CCCCN)C(=O)N[C@@H](CS)C(=O)N[C@@H](Cc1c[nH]c2ccccc12)C(=O)O [H-Tyr*-Glu-Val-Met-Leu-Lys-Cys-Trp-OH] (HELM PEPTIDE1{[N[C@@H](Cc1ccc(OP(=O)(O)O)cc1)C(=O)[*:2]].E.V.M.L.K.C.W}$$$$V2.0)
Binding to PI 3-kinase [1]: capable of binding to PI 3-kinase | Inhibition of binding of p85 to HGF/SF receptor ([2]; phosphopeptide 10 μM, p85 from Sf9 lysates, FIG. 1): efficiently outcompeted p85 | Efficiency at outcompeting p85 (relative affinity for p85) ([2]; phosphopeptides at 10 nM, 100 nM, 1 μM, FIG. 2, rank order SEQ. ID NO: 19, then 22, 20, 18): highest
